According to publication PMC11513854, “De novo GTP synthesis is a metabolic vulnerability for the interception of brain metastases” (Cell Reports Medicine, 2024):

Columns and labels:
[1] = tested on: melanoma-BM; experiment: Pre-treatment melanoma-BM PDX model; assay type: in vivo, mice; details: pre-treated BMICs
Text: We decided to focus primarily on lung-BM for our in vivo experiments because they account for over 50% of all BM cases. […] This phenotype was also recapitulated in a melanoma-BM PDX model (Figures S2A and S2B).
Fig S2. PDX m odels m im ic patient data, related to Figure 3. a, Representative IVIS bioluminescence images of […]
imaging system. Comparisons were made via a two-tailed unpaired t-test and data are presented as mean ± SED from 4-5 technical replicates. […]
following intracranial engraftment of patient-der ived BMICs. Comparisons were made via a Log-rank (Mantel-Cox) test, P value is indicated. c, CRUK0748, a patient- derived lung tumor cell line that metastasized to the brain of the patient it was retrieved from, was confirmed to metastasize to the brains of mice in our animal models following intrathoracic injection. CRUK0733, a patient-derived lung tumor cell line that has not metastasized to the brain of […]
anti-proliferative effect on BMICs isolated from the brains of mice following CRUK0748 metastasis to the brain.
(1 picture or pasted object on this page, not shown here)

[2] = tested on: CRUK0748-BM; experiment: Dose-response assay on CRUK0748-BM line; assay type: cell-based, human
Text: To obtain a clinically relevant correlate to the data aforementioned, we acquired two patient-derived lung adenocarcinoma samples: one that was derived from a patient who developed BM following their primary lung tumor diagnosis (CRUK0748), and one that was derived from a patient who, to-date, has not developed BM (CRUK0733). BM-initiating capacity was confirmed in our PDX models (Figure S1C). We harvested the tagged CRUK0748 cells from the brains of mice and cultured them in stem cell-enrichment media conditions to derive a CRUK0748-BM line.
(§1) Dose-response assays were conducted using the same protocol apart from drugs being plated using 2-fold serial dilutions (20 μM - 39 nM) as previously described.[66] The half maximal inhibitory concentration (IC50) is determined by plotting percent cell viability by the logarithmic concentration of drug. IC80 concentrations will be used for subsequent functional assays (cell proliferation, sphere formation), as determined by the following formula: ICF=100−F/F^1/H×IC50 where F = fraction of maximal response and H = hill slope.

[3] = tested on: patient-derived BMICs; experiment: Migration (wound healing) assay; assay type: cell-based, human; details: IC80
Experimental: Cells were plated at a density of 15,000 to 25,000 cells (depending upon the cell line) per 70 μL media supplemented with 10% FBS into two separate wells of a bi-silicon structure within a 48-well plate. The cells were allowed to adhere for 24 h at 37C within a humidified atmosphere of 5% CO2 to form a monolayer of cells. After 24 h the silicon inserts were detached from the 48-well plate, leaving behind two monolayers of cells that are separated by an empty ‘wound’ and enabling of cell migration into the exclusion zone. […] The plate was inserted into the Incucyte in vitro imaging system where the ‘wound’ was imaged periodically over time. The Incucyte scan type chosen was 300ms adherent cell-by-cell alongside phase and green imaging channels within a 10× objective. The images were uploaded to ImageJ where the wound area was calculated to determine the wound coverage percentage.

[4] = tested on: normal brain cells; experiment: Dose-response curves of control normal brain cells; assay type: cell-based, human; details: 72-h treatment, same concentrations (below 10 μM)
Text: PrestoBlue readout is normalized to vehicle-treated cells. Data are presented as mean ± SD from 4 technical replicates. (C) Assessment of cell viability of patient-derived BMICs treated with MPA or its vehicle. PrestoBlue readout is normalized to vehicle-treated cells, p < 0.0001. […] Sphere count normalized to vehicle-treated cells, p < 0.0001. (F and G) Percent wound closure of DMSO control vs. MPA-treated cells expressed as an average of replicates (n = 3) and images are taken at 10× magnification. Wound closure (represented by dotted white line) is measured using ImageJ on Incucyte-derived images, p values are indicated. Scale bars are 400 μm. See also Videos S1, S2, S3, and S4. Comparisons of cell viability, sphere formation, and wound closure were made via a two-tailed unpaired t test and data are presented as mean ± SD from 3 to 4 technical replicates. […]
as §1

[5] = tested on: patient-derived BMICs; experiment: Cell proliferation assay over time, PrestoBlue; assay type: cell-based, human; details: IC80, PrestoBlue normalized to vehicle
Experimental: Cell proliferation assays were conducted using the same protocol, except for drugs being plated at their IC80 for a four-day incubation period. All results were illustrated and analyzed for significance using GraphPad Prism 8 software.

[6] = Parallel artificial membrane permeability (PAMPA) assay; assay type: in vitro ADME; details: 50 μM, pH 7.4, 16 h; −LogPe < 6 indicate high CNS permeability
Experimental: The permeability of the compounds was evaluated using the parallel artificial membrane permeability (PAMPA) assay, as previously described.[35] The PAMPA assembly was consisted of the acceptor plate (MultiScreen IP Filter Plate, Millipore Sigma, Canada) and the donor plate (96 well Collection Plate, Millipore Sigma, Canada). The artificial membrane solution was prepared as 15 mg/mL of polar brain lipid from porcine (Sigma Aldrich, Oakville, Canada) in a solution of 60% chloroform/40% dodecane. Seven μL of the mixture was pipetted into each acceptor plate well (top compartment). Thereafter, 300 μL of PBS (1 × PBS, pH 7.4, 5% DMSO) solution was added to each well of the acceptor plate and 300 μL of drug-containing donor solutions (50 μM compounds in 1 × PBS, pH 7.4, 5% DMSO) to each well of the donor plate (bottom compartment) in triplicate. […] The concentration of the compounds was determined by LC/MS/MS. The effective permeability (Pe), in units of centimeter per second, was calculated using the following equation: LogPe=Log{C×[−Ln(1−[drug]acceptor/[drug]equilibrium)]} Where: C = VD × VA/[(VD + VA) × t × A]; VD = volume of donor compartment (0.30 mL); VA = volume of acceptor compartment (0.30 mL); A = filter area (0.24 cm^2 for Multi-Screen Permeability Filter plate); and t = incubation time (in seconds).

Structure (SMILES)	brain tumor burden and survival phenotype [1]	BMIC proliferation, dose-response [2]	migration of patient-derived BMICs [3]	toxicity to normal brain cells [4]	BMIC proliferation over time [5]	BBB penetrance by PAMPA [6]
COc1c(C)c2c(c(O)c1C/C=C(\C)CCC(=O)O)C(=O)OC2 [MPA, Mycophenolic acid]	recapitulated	inhibits BMIC proliferation	inhibits the migration	nontoxic	inhibits BMIC proliferation over time	–
COc1c(C)c2c(c(O)c1C/C=C(\C)CCC(=O)OCCN1CCCC1)C(=O)OC2 [Compound 3]	–	–	–	–	–	BBB penetrant
